# Target: T1, v-Ki-ras p21 protein (serine at position 12) (Kirsten murine sarcoma virus, UniProt P01117)
# T1 construct: made in house; host or cells: E. coli (plasmid pINIII-ras, a gift; lac promoter, IPTG induction)
# Assay: Inhibition by nucleotide of anti-p21ser antibody binding to p21 protein (immunoprecipitation under mild denaturation conditions)
# Details: high concentrations (10 mM) of nucleotide
# From the text: In this example the antibody was used to immunoprecipitate a form of p21 protein which is known to contain serine at position 12. This protein is a E. coli expressing v-Ki-ras p21 protein (produced using a plasmid pINIII-ras which was constructed by and was a gift from M. Inouge of SUNY at Stony Brook, New York in which transcription was directed by the lac promoter--see Masui, Y. et al., in Experimental Manipulation of Gene Expression, M. Inogue, ed., Academic Press, N.Y., pp 15-32 (1983). Expression of this protein was induced by treatment of the cultures with 2 mM isopropylthiogalactoside (IPTG). Cell pellets were resuspended in 50 mM glucose, 25 mM Tris.HCl pH 8.0, 10 mM EDTA, 2 mg/ml lysozyme, and 0.01% aprotinin, and were then incubated for 30 minutes at 4° C. Triton X-100 was added to 1% concentration for 5 additional minutes. Following a 10-minute 15,000 xg spin, the supernatant was spun for an additional 2 hours at 150,000 xg to prepare the cleared lysate. One hundred-μl samples of the cleared cell lysate were incubated with 40 μCi ^32 P gamma-labeled guanosine triphosphate (GTP) for 30 minutes at 37° C. […] Immune complexes were washed with 0.5% NP40, 1M LiCl, 50 mM Tris.HCl, pH 8.0, 120 mM NaCl, and analyzed by SDS-PAGE. […]
# T1 sequence (P01117 whole entry): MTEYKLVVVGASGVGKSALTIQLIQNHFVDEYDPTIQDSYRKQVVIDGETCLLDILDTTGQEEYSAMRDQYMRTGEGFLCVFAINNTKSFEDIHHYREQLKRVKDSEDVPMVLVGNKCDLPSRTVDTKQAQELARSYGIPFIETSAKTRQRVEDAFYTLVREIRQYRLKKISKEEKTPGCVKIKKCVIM
smiles,measurement,value
"Nc1nc2c(ncn2[C@@H]2O[C@H](COP(=O)(O)OP(=O)(O)OP(=O)(O)O)[C@@H](O)[C@H]2O)c(=O)[nH]1 [GTP, guanosine triphosphate]",inhibition of the binding of anti-p21ser antibodies to p21 protein,substantially inhibit

# — patent US4762706A, “Peptide antibodies and their use in detecting oncogene products” (priority 1984, dated 1988)
